# Calls of active or inactive are those of the source. No cut-off for these calls is given here.
# Key:
# [1] = Inhibition beta lactamase PDC-1 in Pseudomonas aeruginosa PAO1 using nitrocefin as substrate measured by 96 well microtitre plate
# [2] = test system: Pseudomonas aeruginosa PAO1; experiment: Inhibition of beta-lactamase activity in Pseudomonas aeruginosa PAO1 17/14-017 (ST-235) assessed as MIC for cefpodoxime antibacterial activity at 16 mg/L by broth microdilution method
# [3] = test system: Pseudomonas aeruginosa PAO1; experiment: Inhibition of beta-lactamase activity in Pseudomonas aeruginosa PAO1 deltadacBdeltaampD assessed as MIC for cefpodoxime antibacterial activity at 16 mg/L by broth microdilution method
# [4] = test system: Pseudomonas aeruginosa PAO1; experiment: Inhibition of beta-lactamase activity in Pseudomonas aeruginosa PAO1 PAHUAC-27(ST-22) assessed as MIC for cefpodoxime antibacterial activity at 16 mg/L by broth microdilution method
# [5] = Inhibition beta lactamase PDC-1 in Pseudomonas aeruginosa PAO1 assessed as apparent inhibition constant using nitrocefin as substrate measured by 96 well microtitre plate; conditions: read-out: Ki(app)
# [6] = test system: Pseudomonas aeruginosa PAO1; experiment: Inhibition of beta lactamase PDC-1 in Pseudomonas aeruginosa PAO1 assessed as reduction in enzyme activity using nitrocefin as chromogenic substrate preincubated for 10 min using 96 well microtiter plate
# [7] = test system: Pseudomonas aeruginosa PAO1; experiment: Inhibition beta lactamase PDC-1 in Pseudomonas aeruginosa PAO1 assessed as maximum rate of inactivation using nitrocefin as substrate measured by 96 well microtitre plate
# [8] = test system: Pseudomonas aeruginosa PAO1; experiment: Inhibition of beta-lactamase activity in Pseudomonas aeruginosa PAO1 6/04-224 (ST-175) assessed as MIC for cefpodoxime antibacterial activity at 4 mg/L by broth microdilution method
# [9] = test system: Pseudomonas aeruginosa PAO1; experiment: Inhibition of beta-lactamase activity in Pseudomonas aeruginosa PAO1 deltadacB assessed as MIC for cefpodoxime antibacterial activity at 16 mg/L by broth microdilution method
# [10] = test system: Pseudomonas aeruginosa PAO1; experiment: Inhibition of beta-lactamase activity in Pseudomonas aeruginosa PAO1 deltaampD assessed as MIC for cefpodoxime antibacterial activity at 16 mg/L by broth microdilution method
# [11] = test system: Pseudomonas aeruginosa PAO1; experiment: Inhibition of beta-lactamase activity in Pseudomonas aeruginosa PAO1 PAHUAC-14 (ST-966) assessed as MIC for cefpodoxime antibacterial activity at 16 mg/L by broth microdilution method
# [12] = test system: Pseudomonas aeruginosa PAO1; experiment: Inhibition of beta-lactamase activity in Pseudomonas aeruginosa PAO1 deltaC+pUCP-(PDC-5) assessed as MIC for cefpodoxime antibacterial activity at 4 mg/L by broth microdilution method
# [13] = test system: Pseudomonas aeruginosa PAO1; experiment: Inhibition of beta-lactamase activity in Pseudomonas aeruginosa PAO1 PAHUAC-14 (ST-966) assessed as MIC for cefpodoxime antibacterial activity at 4 mg/L by broth microdilution method
# Pseudomonas aeruginosa = experiment: Inhibition of beta lactamase PDC-1 in Pseudomonas aeruginosa PAO1 for 30 min using MALDI TOF-MS analysis
# [14] = test system: Pseudomonas aeruginosa PAO1; experiment: Inhibition of beta-lactamase activity in Pseudomonas aeruginosa PAO1 36/14-210 (ST-235) assessed as MIC for cefpodoxime antibacterial activity at 16 mg/L by broth microdilution method
# [15] = test system: Pseudomonas aeruginosa PAO1; experiment: Inhibition of beta-lactamase activity in Pseudomonas aeruginosa PAO1 deltadacBdeltadacC assessed as MIC for cefpodoxime antibacterial activity at 4 mg/L by broth microdilution method
# [16] = test system: Pseudomonas aeruginosa PAO1; experiment: Inhibition of beta-lactamase activity in Pseudomonas aeruginosa PAO1 53/22-113 (ST-244) assessed as MIC for cefpodoxime antibacterial activity at 16 mg/L by broth microdilution method
# [17] = test system: Pseudomonas aeruginosa PAO1; experiment: Inhibition of beta-lactamase activity in Pseudomonas aeruginosa PAO1 deltaC assessed as MIC for cefpodoxime antibacterial activity at 16 mg/L by broth microdilution method
# [18] = test system: Pseudomonas aeruginosa PAO1; experiment: Inhibition of beta-lactamase activity in Pseudomonas aeruginosa PAO1 13/09-018 (ST-175) assessed as MIC for cefpodoxime antibacterial activity at 16 mg/L by broth microdilution method
# [19] = test system: Pseudomonas aeruginosa PAO1; experiment: Inhibition of beta-lactamase activity in Pseudomonas aeruginosa PAO1 deltaampD assessed as MIC for cefpodoxime antibacterial activity at 4 mg/L by broth microdilution method
# [20] = test system: Pseudomonas aeruginosa PAO1; experiment: Inhibition of beta-lactamase activity in Pseudomonas aeruginosa PAO1 deltaC+pUCP-(PDC-1) assessed as MIC for cefpodoxime antibacterial activity at 16 mg/L by broth microdilution method
# [21] = test system: Pseudomonas aeruginosa PAO1; experiment: Inhibition of beta-lactamase activity in Pseudomonas aeruginosa PAO1 deltaDdeltsDh2deltaDh3 assessed as MIC for cefpodoxime antibacterial activity at 4 mg/L by broth microdilution method
# [22] = test system: Pseudomonas aeruginosa PAO1; experiment: Inhibition of beta-lactamase activity in Pseudomonas aeruginosa PAO1 deltadacBdeltapbpGdeltadacC assessed as MIC for cefpodoxime antibacterial activity at 4 mg/L by broth microdilution method
# [23] = test system: Pseudomonas aeruginosa PAO1; experiment: Inhibition of beta-lactamase activity in Pseudomonas aeruginosa PAO1 deltadacBdeltaampD assessed as MIC for cefpodoxime antibacterial activity at 4 mg/L by broth microdilution method
# [24] = test system: Pseudomonas aeruginosa PAO1; experiment: Inhibition beta lactamase PDC-1 in Pseudomonas aeruginosa PAO1 assessed half life of nitrocefin substrate measured by 96 well microtitre plate assay
# [25] = test system: Pseudomonas aeruginosa PAO1; experiment: Inhibition of beta-lactamase activity in Pseudomonas aeruginosa PAO1 53/22-113 (ST-244) assessed as MIC for cefpodoxime antibacterial activity at 4 mg/L by broth microdilution method
# [26] = test system: Pseudomonas aeruginosa PAO1; experiment: Inhibition of beta-lactamase activity in Pseudomonas aeruginosa PAO1 deltaC+pUCP-(PDC-5) assessed as MIC for cefpodoxime antibacterial activity at 16 mg/L by broth microdilution method
# [27] = test system: Pseudomonas aeruginosa PAO1; experiment: Inhibition of beta-lactamase activity in Pseudomonas aeruginosa PAO1 deltadacB assessed as MIC for cefpodoxime antibacterial activity at 4 mg/L by broth microdilution method
# [28] = test system: Pseudomonas aeruginosa PAO1; experiment: Inhibition of beta-lactamase activity in Pseudomonas aeruginosa PAO1 deltaC+pUCP-(PDC-1) assessed as MIC for cefpodoxime antibacterial activity at 4 mg/L by broth microdilution method
# [29] = test system: Pseudomonas aeruginosa PAO1; experiment: Inhibition of beta-lactamase activity in Pseudomonas aeruginosa PAO1 assessed as MIC for cefpodoxime antibacterial activity at 16 mg/L by broth microdilution method
# [30] = test system: Pseudomonas aeruginosa PAO1; experiment: Inhibition of beta-lactamase activity in Pseudomonas aeruginosa PAO1 deltaC assessed as MIC for cefpodoxime antibacterial activity at 4 mg/L by broth microdilution method
# [31] = test system: Pseudomonas aeruginosa PAO1; experiment: Inhibition of beta-lactamase activity in Pseudomonas aeruginosa PAO1 PAHUAC-27(ST-22) assessed as MIC for cefpodoxime antibacterial activity at 4 mg/L by broth microdilution method
# [32] = test system: Pseudomonas aeruginosa PAO1; experiment: Inhibition of beta-lactamase activity in Pseudomonas aeruginosa PAO1 deltadacBdeltapbpGdeltadacC assessed as MIC for cefpodoxime antibacterial activity at 16 mg/L by broth microdilution method
# [33] = test system: Pseudomonas aeruginosa PAO1; experiment: Inhibition of beta-lactamase activity in Pseudomonas aeruginosa PAO1 6/04-224 (ST-175) assessed as MIC for cefpodoxime antibacterial activity at 16 mg/L by broth microdilution method
# [34] = test system: Pseudomonas aeruginosa PAO1; experiment: Inhibition of beta-lactamase activity in Pseudomonas aeruginosa PAO1 deltaDdeltsDh2deltaDh3 assessed as MIC for cefpodoxime antibacterial activity at 16 mg/L by broth microdilution method
# [35] = test system: Pseudomonas aeruginosa PAO1; experiment: Inhibition beta lactamase PDC-1 in Pseudomonas aeruginosa PAO1 assessed as ratio of kinact/K1 using nitrocefin as substrate measured by 96 well microtitre plate
# [36] = test system: Pseudomonas aeruginosa PAO1; experiment: Inhibition of beta-lactamase activity in Pseudomonas aeruginosa PAO1 13/09-018 (ST-175) assessed as MIC for cefpodoxime antibacterial activity at 4 mg/L by broth microdilution method
# [37] = test system: Pseudomonas aeruginosa PAO1; experiment: Inhibition of beta-lactamase activity in Pseudomonas aeruginosa PAO1 deltadacBdeltadacC assessed as MIC for cefpodoxime antibacterial activity at 16 mg/L by broth microdilution method
# [38] = test system: Pseudomonas aeruginosa PAO1; experiment: Inhibition of beta-lactamase activity in Pseudomonas aeruginosa PAO1 23/14-053 (ST-309) assessed as MIC for cefpodoxime antibacterial activity at 16 mg/L by broth microdilution method
# [39] = test system: Pseudomonas aeruginosa PAO1; experiment: Inhibition of beta-lactamase activity in Pseudomonas aeruginosa PAO1 17/14-017 (ST-235) assessed as MIC for cefpodoxime antibacterial activity at 4 mg/L by broth microdilution method
# [40] = test system: Pseudomonas aeruginosa PAO1; experiment: Inhibition of beta-lactamase activity in Pseudomonas aeruginosa PAO1 36/14-210 (ST-235) assessed as MIC for cefpodoxime antibacterial activity at 4 mg/L by broth microdilution method
# [41] = test system: Pseudomonas aeruginosa PAO1; experiment: Inhibition of beta-lactamase activity in Pseudomonas aeruginosa PAO1 23/14-053 (ST-309) assessed as MIC for cefpodoxime antibacterial activity at 4 mg/L by broth microdilution method
# [42] = test system: Pseudomonas aeruginosa PAO1; experiment: Inhibition of beta-lactamase activity in Pseudomonas aeruginosa PAO1 assessed as MIC for cefpodoxime antibacterial activity at 4 mg/L by broth microdilution method
# [43] = test system: Pseudomonas aeruginosa PAO1; experiment: Inhibition beta lactamase PDC-1 in Pseudomonas aeruginosa PAO1 assessed as inactivation efficiency by measuring acylation rate (k2/K) using nitrocefin as substrate measured by 96 well microtitre plate
# [44] = test system: Pseudomonas aeruginosa PAO1; experiment: Inhibition beta lactamase PDC-1 in Pseudomonas aeruginosa PAO1 assessed as deacylation off-rate using nitrocefin as substrate at 30 mins measured by 96 well microtitre plate
compound,measurement,setting,value
C[C@]1(Cn2ccnn2)[C@H](C(=O)O)N2C(=O)C[C@H]2S1(=O)=O [TAZOBACTAM],IC50,[1],844 nM
O=C(O)[C@H]1/C(=C/CO)O[C@@H]2CC(=O)N21 [CLAVULANIC ACID],IC50,[1],> 200000 nM
C[C@]1(COC(=O)Cc2ccc(O)c(O)c2)[C@H](C(=O)O)N2C(=O)/C(=C/c3ccccn3)[C@H]2S1(=O)=O,MIC,[2],2 µg/mL
same,MIC,[3],1 µg/mL
same,MIC,[4],1 µg/mL
same,Ki,[5],53 nM
same,inhibition,[6],inactive
same,Kinact,[7],0.046 s⁻¹
same,MIC,[8],8 µg/mL
same,MIC,[9],0.5 µg/mL
same,MIC,[10],1 µg/mL
same,MIC,[11],2 µg/mL
same,MIC,[12],2 µg/mL
same,MIC,[13],16 µg/mL
same,inhibition,Pseudomonas aeruginosa,inactive
same,MIC,[14],8 µg/mL
same,MIC,[15],1 µg/mL
same,MIC,[16],4 µg/mL
same,MIC,[17],1 µg/mL
same,IC50,[1],6.1 nM
same,MIC,[18],8 µg/mL
same,MIC,[19],2 µg/mL
same,MIC,[20],1 µg/mL
same,MIC,[21],4 µg/mL
same,MIC,[22],1 µg/mL
same,MIC,[23],8 µg/mL
same,T1/2,[24],1.37 h
same,MIC,[25],8 µg/mL
same,MIC,[26],2 µg/mL
same,MIC,[27],1 µg/mL
same,MIC,[28],1 µg/mL
same,MIC,[29],1 µg/mL
same,MIC,[30],1 µg/mL
same,MIC,[31],2 µg/mL
same,MIC,[32],0.5 µg/mL
same,MIC,[33],8 µg/mL
same,MIC,[34],0.5 µg/mL
same,K,[35],6.3 10^5/M/s
same,MIC,[36],2 µg/mL
same,MIC,[37],0.5 µg/mL
same,MIC,[38],1 µg/mL
same,MIC,[39],2 µg/mL
same,MIC,[40],16 µg/mL
same,MIC,[41],1 µg/mL
same,MIC,[42],1 µg/mL
same,k2/K inactivation efficiency,[43],1.5 M⁻¹ s⁻¹
same,K,[44],9 10^-2/min
